{"source": "patent US20130287918A1", "about": "“MICROBICIDAL COMPOSITION” (DUPONT NUTRITION DIOSCIENCES APS, priority 2010, published 2013)", "assay_type_in_all_cases": "cell-based", "key": {"[1]": {"test_system": "native flora of Lactic acid bacteria", "experiment": "Salsa sauce fresh challenge study, native lactic acid bacteria on MRS-agar", "settings": "for Cell counts on MRS-agar (native Lactic acid bacteria): Salsa sauce 4° C., FP1000-D1 1%, FP1000-D2 1%, MG200 1%, Potassium Sorbate 0.1%", "protocol": "(§1) The viscous products were thoroughly mixed (2 minutes) within 10 minutes of inoculation to ensure that the inoculum was evenly distributed throughout the product. One sample remained un-inoculated and was used as negative control to monitor the native contamination flora. All samples were incubated in the dark at chilled temperature (4° C.) and assayed for yeast, plated on an appropriate yeast medium, until confirmed failure (≧1.0E+06 CFU/g) or until visible mould growth, respectively. In parallel, the growth of lactic acid bacteria and total cell count were monitored on MRS and PCA in all the batches and the non-inoculated blind, respectively.\n(§2) The Salsa sauces were assayed at time zero, day 3, day 7, day 14 and were plated bi-weekly thereafter until day 92. CFU/g was detected for 3 samples from each batch inoculated with yeast. Before each sampling (closed jar), the sample was thoroughly mixed, 10 gram sample were aseptically pulled from each jar and diluted with peptone water. Each sample was stomached (1 min, normal setting) plated in duplicate onto YGC agar (VWR) and MRS (VWR), and incubated at 25° C. for 5 days and 37° C. for 3 days, respectively."}, "[2]": {"test_system": "pool of 4 yeast species (Candida tropicalis DCS 604, Zygosaccharomyces bailii DCS 1167 and DCS 1172, Pichia spp DCS 1175)", "experiment": "Salsa sauce fresh challenge study, yeast count on YGC agar", "settings": "Salsa sauce 4° C., FP1000-D1 1%, FP1000-D2 1%, MG200 1%, Potassium Sorbate 0.1%", "description": "Samples of the Salsa sauce (formula in table 17) with and without the experimental blend were produced. […] It needs to be mentioned that the Salsa sauce was not pasteurized.\n(§3) Each batch was split (scheme table 15) in probes of 90 gram and placed in sterile jars. 21 probes of each batch were inoculated with the desired level of yeast and 5 probes of each batch were inoculated with mould spores, respectively at a targeted inoculation rate of 300 to 800 CFU/g.\nas §1\nIn total 8 strains, available from Danisco's Culture Collection (DCS) (Danisco A/S, Brabrand, Denmark) were employed as 1 yeast and 1 mould pool in the respective Salsa sauce. Originally, they were isolated e.g. from spoiled ketchup, mayonnaise. Salsa dressing or obtained from official culture collections such as DMSZ.\nBefore each experiment, a stock culture of each yeast, maintained at −86° C. in suitable broth containing glycerol 50% (v/v), was propagated through two consecutive growth cycles in suitable media (YGC-agar (VWR) pH 5.1+0.2; YM Broth (Becton, Dickinson and Company) at pH 6.0±0.2 at and temperature (25° C.). The overnight cultures are diluted in saline solution to obtain working cultures. A cocktail of the yeasts was generated by adding equal cell counts of each culture into a sterile container and mixed appropriately. The yeast cocktail was diluted and inoculated into the product in order to achieve the final desired concentration. Pool counts were verified via plate count.\nas §2"}, "[3]": {"test_system": "pool of 4 mould species (Penicillium sp DCS 1380, Aspergillus versicolor DCS 1069, Aspergillus parasiticus DCS 709, Mucor sp DCS 1140)", "experiment": "Salsa sauce fresh challenge study, mould growth", "settings": "Salsa sauce 4° C.; blends 1%", "protocol": "as §3, §1\nMould spores were prepared as follows: approx. 2 ml of sterile demineralised water was used to wash the spores off an out-grown mould cultivar (minimum 5 day old plate). This suspension is transferred to a sterile container. Pool counts were verified via plate count.\n5 samples from each batch inoculated with mould were visually analysed for mould growth."}}, "data": [{"smiles": "C/C=C/C=C/C(=O)[O-].[K+]", "note": "[Potassium Sorbate, potassium sorbate]", "values": [{"measurement": "time after which no more colonies were detected on MRS-agar", "setting": "[1]; Salsa sauce, potassium sorbate 0.1%", "value": 42, "unit": "days"}, {"measurement": "Cell counts on MRS-agar (native Lactic acid bacteria)", "setting": "[1]; day 0", "value": "4.75E+02"}, {"measurement": "Cell counts on MRS-agar (native Lactic acid bacteria)", "setting": "[1]; day 2", "value": "1.50E+03"}, {"measurement": "Cell counts on MRS-agar (native Lactic acid bacteria)", "setting": "[1]; day 5", "value": "1.40E+02"}, {"measurement": "Cell counts on MRS-agar (native Lactic acid bacteria)", "setting": "[1]; day 7", "value": "1.30E+03"}, {"measurement": "Cell counts on MRS-agar (native Lactic acid bacteria)", "setting": "[1]; day 14", "value": "5.38E+02"}, {"measurement": "Cell counts on MRS-agar (native Lactic acid bacteria)", "setting": "[1]; day 28", "value": "4.30E+01"}, {"measurement": "Cell counts on MRS-agar (native Lactic acid bacteria)", "setting": "[1]; day 41", "value": "<1.00E+01"}, {"measurement": "Cell counts on MRS-agar (native Lactic acid bacteria)", "setting": "[1]; day 55", "value": "<1.00E+01"}, {"measurement": "Cell counts on MRS-agar (native Lactic acid bacteria)", "setting": "[1]; day 93", "value": "<1.00E+01"}, {"measurement": "Cell counts on YGC-agar (yeast growth)", "setting": "[2]; day 0", "value": "4.75E+02", "unit": "CFU/g"}, {"measurement": "Cell counts on YGC-agar (yeast growth)", "setting": "[2]; day 2", "value": "2.50E+02", "unit": "CFU/g"}, {"measurement": "Cell counts on YGC-agar (yeast growth)", "setting": "[2]; day 5", "value": "1.00E+02", "unit": "CFU/g"}, {"measurement": "Cell counts on YGC-agar (yeast growth)", "setting": "[2]; day 7", "value": "6.80E+01", "unit": "CFU/g"}, {"measurement": "Cell counts on YGC-agar (yeast growth)", "setting": "[2]; day 14", "value": "4.80E+01", "unit": "CFU/g"}, {"measurement": "Cell counts on YGC-agar (yeast growth)", "setting": "[2]; day 28", "value": "1.45E+02", "unit": "CFU/g"}, {"measurement": "Cell counts on YGC-agar (yeast growth)", "setting": "[2]; day 41", "value": "3.30E+01", "unit": "CFU/g"}, {"measurement": "Cell counts on YGC-agar (yeast growth)", "setting": "[2]; day 55", "value": "3.20E+01", "unit": "CFU/g"}, {"measurement": "Cell counts on YGC-agar (yeast growth)", "setting": "[2]; day 93", "value": "3.30E+01", "unit": "CFU/g"}, {"measurement": "control of mould outgrowth (plate count in yeast inoculated samples)", "setting": "[3]", "value": 12, "unit": "weeks"}]}]}
